Key:
[1] = molecular target: Tyrosine-protein kinase Yes (Homo sapiens, UniProt P07947); assay: Inhibition of binding to Yes SH2 domain
[2] = species: Oryctolagus cuniculus; assay: Inhibition of rabbit osteoclast-mediated resorption of dentine at 100 uM; 0-35% inhibition; assay type: functional
[3] = molecular target: T1, Tyrosine-protein kinase ZAP-70 (Homo sapiens, UniProt P43403); assay: Inhibition of binding to Zap70 protein kinase
T1 sequence (P43403 whole entry): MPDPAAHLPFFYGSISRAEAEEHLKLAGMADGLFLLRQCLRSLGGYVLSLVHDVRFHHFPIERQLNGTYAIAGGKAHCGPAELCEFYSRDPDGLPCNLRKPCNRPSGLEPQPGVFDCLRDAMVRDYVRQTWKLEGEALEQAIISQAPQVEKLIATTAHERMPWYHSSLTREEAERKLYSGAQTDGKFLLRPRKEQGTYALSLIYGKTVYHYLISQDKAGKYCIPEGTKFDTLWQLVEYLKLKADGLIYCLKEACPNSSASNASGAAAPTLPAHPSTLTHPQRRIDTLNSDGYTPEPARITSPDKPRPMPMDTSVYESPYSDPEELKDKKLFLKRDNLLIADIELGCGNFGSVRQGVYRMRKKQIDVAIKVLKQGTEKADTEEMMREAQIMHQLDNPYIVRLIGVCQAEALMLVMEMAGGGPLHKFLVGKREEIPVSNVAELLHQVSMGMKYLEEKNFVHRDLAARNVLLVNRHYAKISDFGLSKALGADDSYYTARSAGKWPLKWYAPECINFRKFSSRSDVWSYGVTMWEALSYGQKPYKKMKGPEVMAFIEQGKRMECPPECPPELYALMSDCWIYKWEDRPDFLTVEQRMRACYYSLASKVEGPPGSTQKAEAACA

[4] = molecular target: Proto-oncogene tyrosine-protein kinase Src (Homo sapiens, UniProt P12931); assay: Inhibition of binding to Src SH2 domain
Proto-oncogene tyrosine-protein kinase Src, sequence (P12931 2-536 limits assumed): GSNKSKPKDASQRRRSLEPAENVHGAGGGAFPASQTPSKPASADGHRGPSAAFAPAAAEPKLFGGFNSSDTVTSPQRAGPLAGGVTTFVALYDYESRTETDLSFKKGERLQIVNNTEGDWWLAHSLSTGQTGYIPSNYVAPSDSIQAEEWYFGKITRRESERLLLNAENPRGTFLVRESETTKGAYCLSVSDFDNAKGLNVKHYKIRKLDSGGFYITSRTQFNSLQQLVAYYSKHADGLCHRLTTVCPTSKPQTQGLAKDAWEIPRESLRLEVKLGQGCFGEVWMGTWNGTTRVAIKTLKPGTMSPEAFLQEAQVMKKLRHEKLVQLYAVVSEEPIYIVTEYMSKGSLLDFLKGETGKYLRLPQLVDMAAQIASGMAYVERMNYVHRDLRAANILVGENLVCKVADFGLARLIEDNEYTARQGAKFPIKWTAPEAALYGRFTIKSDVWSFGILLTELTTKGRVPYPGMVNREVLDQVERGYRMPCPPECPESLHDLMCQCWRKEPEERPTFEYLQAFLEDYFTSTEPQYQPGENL

Tyrosine-protein kinase Yes, sequence (P07947 whole entry, the tested form may be a part): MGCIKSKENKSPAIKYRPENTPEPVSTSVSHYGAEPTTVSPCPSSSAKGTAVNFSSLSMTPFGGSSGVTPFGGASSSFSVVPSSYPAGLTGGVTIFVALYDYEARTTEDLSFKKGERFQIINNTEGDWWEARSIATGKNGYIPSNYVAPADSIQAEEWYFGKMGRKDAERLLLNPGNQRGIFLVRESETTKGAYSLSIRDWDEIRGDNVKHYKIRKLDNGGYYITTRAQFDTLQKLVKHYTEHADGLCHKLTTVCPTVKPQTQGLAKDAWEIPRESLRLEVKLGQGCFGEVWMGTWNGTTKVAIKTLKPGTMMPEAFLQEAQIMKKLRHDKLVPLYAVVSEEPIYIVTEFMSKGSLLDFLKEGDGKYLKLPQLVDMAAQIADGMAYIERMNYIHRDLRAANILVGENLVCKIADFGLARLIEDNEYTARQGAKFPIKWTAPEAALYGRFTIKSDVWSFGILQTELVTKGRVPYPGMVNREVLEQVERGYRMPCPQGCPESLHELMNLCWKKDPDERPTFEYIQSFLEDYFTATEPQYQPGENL

IC50 [1]	IC50 [3]	IC50 [4]	SMILES	Inhibition [2]
110 µM	> 500 µM		CC(=O)NC(Cc1ccc(OCC(=O)O)c(P(=O)(O)O)c1)C(=O)N[C@@H](C)c1ccc(OCC2CCCCC2)c(C(N)=O)c1 (some centres undefined)	0%
156 µM	> 500 µM	7.3 µM	CCOP(=O)(O)c1cc(CC(NC(C)=O)C(=O)N[C@@H](C)c2ccc(OCC3CCCCC3)c(C(N)=O)c2)ccc1OCC(=O)O (some centres undefined)	
	> 500 µM	3.2 µM	CC(=O)NC(Cc1ccc(OCC(=O)O)c(P(=O)(O)O)c1)C(=O)NC(C)(C)c1ccc(OCC2CCCCC2)c(C(N)=O)c1 (centres undefined)	
> 500 µM	> 500 µM	378 µM	CC(=O)NC(Cc1ccc(OCC(=O)O)c(P(=O)(O)O)c1)C(=O)NCc1ccc(OCC2CCCCC2)c(C(N)=O)c1 (centres undefined)	
> 500 µM	> 500 µM	> 500 µM	CC(C)(NC(=O)CCc1ccc(O)c(P(=O)(O)O)c1)c1ccc(OCC2CCCCC2)c(C(N)=O)c1	
> 500 µM	> 500 µM	> 500 µM	CC(C)(NC(=O)CCc1ccc(OS(=O)(=O)C(F)(F)F)c(P(=O)(O)O)c1)c1ccc(OCC2CCCCC2)c(C(N)=O)c1	
> 500 µM	> 500 µM	> 500 µM	CC(C)(NC(=O)CCc1ccc(OCn2cnnn2)c(P(=O)(O)O)c1)c1ccc(OCC2CCCCC2)c(C(N)=O)c1	
> 500 µM	> 500 µM	> 500 µM	CC(=O)NC(Cc1ccc(OCC(=O)O)c(P(=O)(O)O)c1)C(=O)Nc1ccc(OCC2CCCCC2)c(C(N)=O)c1 (centres undefined)	
303 µM	> 500 µM	35.4 µM	CC(C)(NC(=O)CCc1ccc(OCC(=O)O)c(P(=O)(O)O)c1)c1ccc(OCC2CCCCC2)c(C(N)=O)c1	

SMILES	IC50 [1]	IC50 [3]	IC50 [4]	Inhibition [2]
CC(=O)NC(Cc1ccc(OP(=O)(O)O)cc1)C(=O)N[C@@H](C)c1ccc(OCC2CCCCC2)c(C(N)=O)c1 (some centres undefined)		441 µM		
CC(=O)NC(Cc1ccc(OCC(=O)O)cc1)C(=O)N[C@@H](C)c1ccc(OCC2CCCCC2)c(C(N)=O)c1 (some centres undefined)	> 500 µM		370 µM	

From ChEMBL document CHEMBL1133935, “A novel phosphotyrosine mimetic 4'-carboxymethyloxy-3'-phosphonophenylalanine (Cpp): exploitation in the design of nonpeptide inhibitors of pp60(Src) SH2 domain” (Bioorg Med Chem Lett, 2001)
